Measurements as given in patent publication US11028069B2, “Salt of substituted piperidine compound” (TAIHO PHARMACEUTICAL CO., LTD., priority 2016, dated 2021).
Where a name gives a salt, the structure may show the parent alone.

Assays:
[1] = Solubility measurement, Japanese Pharmacopoeia Dissolution test; assay type: physicochemical; details: crystals; for solubility, 1st fluid for dissolution test: Japanese Pharmacopoeia 1st fluid for dissolution test; for solubility, 2nd fluid for dissolution test: Japanese Pharmacopoeia 2nd fluid for dissolution test
Experimental: The solubility measurement was conducted on the hydrochloride salt, the mesylate salt, the potassium salt, and the sodium salt of Compound 1 and the free form of Compound 1. Specifically, the solubility of the samples: the crystals of the hydrochloride salt of Compound 1 produced in Example 1; the crystals of the mesylate salt of Compound 1 produced in Comparative Example 1; the crystals of the potassium salt of Compound 1 produced in Comparative Example 2; the crystals of the sodium salt of Compound 1 produced in Comparative Example 3; and the crystal of the free form of Compound 1, in the 1st and 2nd fluids for dissolution test according to Japanese Pharmacopoeia was measured according to Japanese Pharmacopoeia, Dissolution test.

[2] = Stability test (solid change) by DSC measurement; assay type: physicochemical; details: crystals, 10° C./min, room temperature to 300° C.
Experimental: The DSC measurement was conducted according to the following test conditions. • Equipment: TA Instruments Q1000 • Sample: about 5 mg • Rate of temperature increase: 10° C./min • Measurement temperature: Room temperature to 300° C.

[3] = Absorption test, oral administration to mice, plasma concentration by LC/MS; assay type: in vivo; details: BALB/cA mice, 50 mg/kg in terms of Compound 1, suspended in 0.5% HPMC
Experimental: The hydrochloride salt of Compound 1 was suspended in 0.5% HPMC, and orally administered to BALB/cA mice at 50 mg/kg in terms of the dose of Compound 1. At 0.5, 1, 2, 4, and 6 hours after the oral administration, the blood was collected from the eyeground, and the plasma was obtained. The compound concentration in the obtained plasma was measured by LC/MS (Agilent Technologies Inc. Agilent 1200, AB Sciex Pte. Ltd. AB Sciex API400) and the oral absorption was evaluated.

[4] = Dynamic vapor sorption system (DVS) analysis (hygroscopicity); assay type: physicochemical; details: increase of humidity from 5% to 75% RH, 25° C.
Experimental: The dynamic vapor sorption system (DVS) analysis was conducted under the following conditions. • Equipment: TA Instruments VTI SGA-100 • Sample: about 10 mg • Measurement temperature: 25° C. • RH steps: 5-95-1% RH by 5% RH
The hygroscopicity of the hydrochloride salt of Compound 1 obtained in Example 1 and the potassium salt obtained in Comparative Example 2 was examined by dynamic vapor sorption system (DVS) analysis. The adsorption and desorption data was collected at 5% relative humidity (RH) intervals in the range of 5% to 95% RH. Before the measurement, the temperature was increased at 1° C./min to 25° C. under nitrogen purging and the salts were dried for up to 6 hours until the weight change in 5 minutes became less than 0.0100%. At the time of the measurement, up to 2 hours of equilibration was conducted until the weight change in 5 minutes became less than 0.0100%.

[5] = Stability test (purity) by liquid chromatography after storage; assay type: physicochemical; details: for purity (%) in samples, 40° C. (open system): crystals left at 40° C. (open system) for 1 month; for purity (%) in samples, 60° C. (open system): crystals left at 60° C. (open system) for 1 month; for purity (%) in samples, under light irradiation: crystals left under light irradiation (1200000 Lux·hr) for 1 month; for purity (%) in samples, before starting test: crystals
Experimental: The measurement by liquid chromatography was conducted according to the following test conditions. • Equipment: Agilent Technologies, Inc., 1200 Series Binary LC System • Mobile phase A: 10 mM Na2HPO4 aqueous solution (pH 6.5) • Mobile phase B: Acetonitrile • Gradient: described in Table 1 • Column: Ascentis Express C18, 150 mm×4.6 mm i.d., 2.7 μm • Measurement wavelength: 210 nm
The crystals of the hydrochloride salt, the mesylate salt, the potassium salt, the sodium salt, and the free form of Compound 1 obtained in Example 1 and Comparative Examples 1 to 4 were each left under conditions at 40° C. (open system), at 60° C. (open system), and under light irradiation (1200000 Lux·hr) for 1 month. Subsequent measurement of purity by liquid chromatography indicated the purity change between before and after the test was 0.2% or less in any of the conditions.

| solubility, 1st fluid for dissolution test [1] [µg/mL] | solubility, 2nd fluid for dissolution test [1] [µg/mL] | DSC chart: endothermic and exothermic processes at relatively low temperatures (solid change) [2] | Plasma concentration AUC0-6 h [3] [µM·h] | weight change in DVS analysis ([4]; listed as hydrochloride salt of Compound 1) | weight change in DVS analysis ([4]; listed as hydrochloride salt of the present invention) | purity (%) in samples, 40° C. (open system) [5] [%] | purity (%) in samples, 60° C. (open system) [5] [%] | purity (%) in samples, under light irradiation [5] [%] | purity (%) in samples, before starting test [5] [%] | weight change in DVS analysis [4] | weight change in DVS analysis ([4]; listed as sodium salt of Compound 1) [%] | Structure (SMILES) |
| --- | --- | --- | --- | --- | --- | --- | --- | --- | --- | --- | --- | --- |
| 24 | 6 | such charts were not obtained | 0.43 | – | – | – | – | – | – | – | – | Cc1cc(Nc2nc(CC3(C(=O)O)CCN(C(=O)c4cccc(Cl)c4Cl)CC3)ccc2F)n[nH]1 [Free form, 1-(2,3-dichlorobenzoyl)-4-((5-fluoro-6-(5-methyl-1H-pyrazol-3-ylamino)pyridin-2-yl)methyl)piperidine-4-carboxylic acid] |
| >1000 | >1000 | such charts were not obtained | 18.2 | less than 0.5% | less than 0.5% | 99.2 | 99.3 | 99.4 | 99.4 | – | – | Cc1cc(Nc2nc(CC3(C(=O)O)CCN(C(=O)c4cccc(Cl)c4Cl)CC3)ccc2F)n[nH]1 [Hydrochloride salt, 1-(2,3-dichlorobenzoyl)-4-((5-fluoro-6-(5-methyl-1H-pyrazol-3-ylamino)pyridin-2-yl)methyl)piperidine-4-carboxylic acid] |
| 490 | 420 | such charts were not obtained | – | – | – | – | – | – | – | – | – | Cc1cc(Nc2nc(CC3(C(=O)O)CCN(C(=O)c4cccc(Cl)c4Cl)CC3)ccc2F)n[nH]1 [Mesylate salt, 1-(2,3-dichlorobenzoyl)-4-((5-fluoro-6-(5-methyl-1H-pyrazol-3-ylamino)pyridin-2-yl)methyl)piperidine-4-carboxylic acid] |

| Structure (SMILES) | solubility, 1st fluid for dissolution test [1] [µg/mL] | solubility, 2nd fluid for dissolution test [1] [µg/mL] | DSC chart: endothermic and exothermic processes at relatively low temperatures (solid change) [2] | Plasma concentration AUC0-6 h [3] [µM·h] | weight change in DVS analysis ([4]; listed as hydrochloride salt of Compound 1) | weight change in DVS analysis ([4]; listed as hydrochloride salt of the present invention) | purity (%) in samples, 40° C. (open system) [5] [%] | purity (%) in samples, 60° C. (open system) [5] [%] | purity (%) in samples, under light irradiation [5] [%] | purity (%) in samples, before starting test [5] [%] | weight change in DVS analysis [4] | weight change in DVS analysis ([4]; listed as sodium salt of Compound 1) [%] |
| --- | --- | --- | --- | --- | --- | --- | --- | --- | --- | --- | --- | --- |
| Cc1cc(Nc2nc(CC3(C(=O)O)CCN(C(=O)c4cccc(Cl)c4Cl)CC3)ccc2F)n[nH]1 [Potassium salt, 1-(2,3-dichlorobenzoyl)-4-((5-fluoro-6-(5-methyl-1H-pyrazol-3-ylamino)pyridin-2-yl)methyl)piperidine-4-carboxylic acid] | >1000 | 730 | charts suggesting endothermic and exothermic processes at relatively low temperatures were obtained | – | – | – | 99.7 | 99.8 | 99.8 | 99.8 | exceeded 14% | – |
| Cc1cc(Nc2nc(CC3(C(=O)O)CCN(C(=O)c4cccc(Cl)c4Cl)CC3)ccc2F)n[nH]1 [Sodium salt, 1-(2,3-dichlorobenzoyl)-4-((5-fluoro-6-(5-methyl-1H-pyrazol-3-ylamino)pyridin-2-yl)methyl)piperidine-4-carboxylic acid] | >1000 | >1000 | charts suggesting endothermic and exothermic processes at relatively low temperatures were obtained | – | – | – | – | – | – | – | – | ≥ 40 |
